Experimental findings from paper PMC9856672, “SGC-CAMKK2-1: A Chemical Probe for CAMKK2” (Cells, 2023) are described below.

Molecules are shown by their SMILES. Read-outs that look alike come from different tables or passages of the source.

The target in one assay is CAMKK2 (Homo sapiens, UniProt Q96RR4). Description: DiscoverX KINOMEscan binding assay at 1 μM, CAMKK2. Set-up: purchased Eurofins DiscoverX KINOMEscan. As for the experimental part:
(§1) Compounds were screened at Eurofins DiscoverX (Freemont, CA) at a single concentration of 1 μM using binding assays as described previously. Briefly, extracts containing DNA-tagged kinases are incubated with immobilized kinase inhibitors and the test compound (at 1 μM). Test compounds that displace the immobilized broad-spectrum inhibitors are detected by quantitative PCR. The results are expressed as the percentage of kinase bound to the bead compared to DMSO control (%control). […] The formula to calculate S10 depicted in Equation (1). (1) S10(1 μM)=number of wild type kinase with % control ≤10/number of wild type kinase tested
(§2) A series of furo [2,3-b]pyridines were generated with modifications off the core at the 3- and 5-positions. They were profiled in the CAMKK2 enzyme assay we have described and utilized previously. Briefly, the enzyme assay measures the ability of the compound to inhibit the transfer of a radiolabeled phosphate from ATP to a CAMKK2-specific peptide. […] 5 was then profiled in the DiscoverX KINOMEscan™ assay panel to provide a view of the overall kinome-wide selectivity (Supplemental S2). This assay platform evaluates compound affinity for a panel of more than 400 wild-type human kinases. The S10 (1 µM), a calculated score that is reflective of broad kinome selectivity, is 0.002 for the probe molecule.

The target in a further assay is T1, CAMKK1 (Homo sapiens, UniProt Q8N5S9).
T1 construct: purchased Eurofins DiscoverX KINOMEscan
Kind of assay: DiscoverX KINOMEscan binding assay at 1 μM, CAMKK1. As for the experimental part:
as §1, §2

The target of a further assay is T2, MYO3B (Homo sapiens, UniProt Q8WXR4).
T2 construct: purchased Eurofins DiscoverX KINOMEscan
T2 sequence (Q8WXR4 1-1341): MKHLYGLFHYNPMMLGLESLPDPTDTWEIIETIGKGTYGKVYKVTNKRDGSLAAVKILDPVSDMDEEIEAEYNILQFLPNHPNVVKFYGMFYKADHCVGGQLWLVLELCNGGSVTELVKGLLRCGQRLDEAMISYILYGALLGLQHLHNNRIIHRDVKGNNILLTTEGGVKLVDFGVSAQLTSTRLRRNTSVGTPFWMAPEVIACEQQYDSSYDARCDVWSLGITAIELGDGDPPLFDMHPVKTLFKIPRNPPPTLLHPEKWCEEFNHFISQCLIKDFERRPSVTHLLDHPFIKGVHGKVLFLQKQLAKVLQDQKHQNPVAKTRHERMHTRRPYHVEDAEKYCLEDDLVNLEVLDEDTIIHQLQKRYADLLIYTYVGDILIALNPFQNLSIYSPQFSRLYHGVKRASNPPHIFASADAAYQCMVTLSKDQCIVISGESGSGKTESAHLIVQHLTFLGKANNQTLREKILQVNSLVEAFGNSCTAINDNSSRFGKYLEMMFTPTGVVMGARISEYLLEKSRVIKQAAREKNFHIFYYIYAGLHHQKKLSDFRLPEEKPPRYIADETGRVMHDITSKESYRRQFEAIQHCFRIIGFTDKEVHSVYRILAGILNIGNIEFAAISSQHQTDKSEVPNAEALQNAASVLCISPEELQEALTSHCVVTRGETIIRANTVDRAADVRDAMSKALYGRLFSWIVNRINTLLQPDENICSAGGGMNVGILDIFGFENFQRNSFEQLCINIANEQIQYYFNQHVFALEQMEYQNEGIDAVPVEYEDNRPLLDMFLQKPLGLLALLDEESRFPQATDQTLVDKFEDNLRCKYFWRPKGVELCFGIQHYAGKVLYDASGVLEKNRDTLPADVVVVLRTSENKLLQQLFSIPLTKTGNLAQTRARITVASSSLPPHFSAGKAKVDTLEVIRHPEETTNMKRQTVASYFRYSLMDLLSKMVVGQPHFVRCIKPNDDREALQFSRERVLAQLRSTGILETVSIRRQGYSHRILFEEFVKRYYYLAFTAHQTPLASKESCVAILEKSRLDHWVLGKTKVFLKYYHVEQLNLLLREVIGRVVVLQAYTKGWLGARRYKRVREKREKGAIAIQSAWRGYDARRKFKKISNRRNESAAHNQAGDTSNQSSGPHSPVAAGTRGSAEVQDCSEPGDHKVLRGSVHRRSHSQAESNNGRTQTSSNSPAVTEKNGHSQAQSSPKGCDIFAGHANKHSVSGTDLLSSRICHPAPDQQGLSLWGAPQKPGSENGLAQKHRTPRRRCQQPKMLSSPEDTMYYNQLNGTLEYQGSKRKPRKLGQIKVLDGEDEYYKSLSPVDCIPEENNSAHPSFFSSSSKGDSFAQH
Kind of assay: DiscoverX KINOMEscan binding assay at 1 μM, MYO3B. As for the experimental part:
as §1, §2

In the next assay the target is T3, PIP4K2C (Homo sapiens, UniProt Q8TBX8).
T3 construct: purchased Eurofins DiscoverX KINOMEscan
T3 sequence (Q8TBX8 1-421): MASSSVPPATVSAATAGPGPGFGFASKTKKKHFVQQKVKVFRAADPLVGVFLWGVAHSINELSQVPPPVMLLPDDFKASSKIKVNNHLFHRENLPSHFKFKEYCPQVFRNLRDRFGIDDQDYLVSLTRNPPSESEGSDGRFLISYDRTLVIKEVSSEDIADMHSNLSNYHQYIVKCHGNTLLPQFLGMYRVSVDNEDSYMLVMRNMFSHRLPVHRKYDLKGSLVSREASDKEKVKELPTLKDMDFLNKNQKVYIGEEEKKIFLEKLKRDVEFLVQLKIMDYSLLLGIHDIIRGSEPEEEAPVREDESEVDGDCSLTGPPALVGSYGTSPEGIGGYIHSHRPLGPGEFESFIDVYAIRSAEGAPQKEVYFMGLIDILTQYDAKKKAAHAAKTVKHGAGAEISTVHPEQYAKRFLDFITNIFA
Kind of assay: DiscoverX KINOMEscan binding assay at 1 μM, PIP4K2C. As for the experimental part:
as §1
(§3) In the DiscoverX KinomeSCAN® assay panel, when screened at a concentration of 1 µM, compound 7 bound to very few kinases with S10 (1 µM) = 0.005. The only two kinases with significant binding for compound 7 were PIP4K2C with a PoC = 7.2 and PIM2 with PoC = 7.4. PIP4K2C is a lipid kinase that has very little catalytic activity, and there is no commercially available kinase activity assay, so this potential off-target activity for the negative control remains uncharacterized.

In the next assay the target is PIM2 (Homo sapiens, UniProt Q9P1W9). Kind of assay: DiscoverX KINOMEscan binding assay at 1 μM, PIM2. Details: purchased Eurofins DiscoverX KINOMEscan. As for the experimental part: as §1, §3
Setting [1] is: percentage of control, compound at 1 μM, read-out: PoC (1 μM) CAMKK2.
Setting [2] is: percentage of control, compound at 1 μM, read-out: PoC (1 μM) CAMKK1.

Sequence of PIM2 (Q9P1W9 whole entry): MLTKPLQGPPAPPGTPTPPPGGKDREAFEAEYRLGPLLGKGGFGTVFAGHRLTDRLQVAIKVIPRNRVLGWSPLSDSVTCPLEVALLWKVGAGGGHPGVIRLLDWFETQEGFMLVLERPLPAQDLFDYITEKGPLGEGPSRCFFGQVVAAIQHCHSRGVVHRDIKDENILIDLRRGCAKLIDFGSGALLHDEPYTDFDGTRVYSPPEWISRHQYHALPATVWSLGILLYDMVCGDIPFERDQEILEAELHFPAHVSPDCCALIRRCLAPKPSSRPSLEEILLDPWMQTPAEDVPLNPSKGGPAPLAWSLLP
Sequence of CAMKK2 (Q96RR4 whole entry): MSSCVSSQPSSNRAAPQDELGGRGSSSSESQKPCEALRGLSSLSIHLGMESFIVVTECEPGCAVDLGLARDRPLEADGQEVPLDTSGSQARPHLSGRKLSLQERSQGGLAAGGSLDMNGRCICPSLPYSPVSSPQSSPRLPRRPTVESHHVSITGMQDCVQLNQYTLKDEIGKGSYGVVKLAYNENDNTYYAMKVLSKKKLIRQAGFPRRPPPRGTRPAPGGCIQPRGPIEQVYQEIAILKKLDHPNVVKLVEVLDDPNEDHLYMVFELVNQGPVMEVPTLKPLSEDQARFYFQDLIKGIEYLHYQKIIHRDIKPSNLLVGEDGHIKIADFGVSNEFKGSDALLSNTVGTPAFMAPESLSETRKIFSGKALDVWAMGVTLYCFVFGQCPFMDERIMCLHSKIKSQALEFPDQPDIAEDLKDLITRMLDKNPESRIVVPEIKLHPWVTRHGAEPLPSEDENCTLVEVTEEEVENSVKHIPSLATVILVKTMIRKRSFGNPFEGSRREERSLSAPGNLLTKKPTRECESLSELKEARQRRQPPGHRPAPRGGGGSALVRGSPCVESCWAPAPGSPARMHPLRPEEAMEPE
T1 sequence (Q8N5S9 whole entry): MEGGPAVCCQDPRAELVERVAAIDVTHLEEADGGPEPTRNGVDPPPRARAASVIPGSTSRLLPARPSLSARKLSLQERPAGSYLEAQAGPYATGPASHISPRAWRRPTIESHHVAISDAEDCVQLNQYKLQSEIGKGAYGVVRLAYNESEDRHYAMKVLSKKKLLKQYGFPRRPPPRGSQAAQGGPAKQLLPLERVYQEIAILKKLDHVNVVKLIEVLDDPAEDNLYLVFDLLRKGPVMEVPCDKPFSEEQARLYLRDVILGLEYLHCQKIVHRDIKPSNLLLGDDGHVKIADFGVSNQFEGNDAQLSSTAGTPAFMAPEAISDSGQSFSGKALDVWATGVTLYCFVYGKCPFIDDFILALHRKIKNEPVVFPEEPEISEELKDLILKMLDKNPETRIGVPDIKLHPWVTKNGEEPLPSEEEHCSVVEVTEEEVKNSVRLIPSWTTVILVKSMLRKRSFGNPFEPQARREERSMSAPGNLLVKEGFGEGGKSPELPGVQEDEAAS

Turning to `Cc1cccc(-c2cnc3occ(-c4ccc(C(=O)O)c(C5CCCC5)c4)c3c2)c1` [Compound 5], the remaining binding at 1 µM amounted to 5.4% at CAMKK2 (setting [1]); 12% at CAMKK1 (setting [2]); 45% at MYO3B (percentage of control, compound at 1 μM, read-out: PoC (1 μM) MYO3B).
As for `O=C(O)c1ccc(-c2coc3ncc(-c4ccccc4)cc23)cc1Cl` [Compound 7], the remaining binding at 1 µM came out at 7.2% at PIP4K2C (percentage of control, compound at 1 μM, read-out: PoC (1 μM) PIP4K2C); 84% at CAMKK2 (setting [1]); 7.4% at PIM2 (percentage of control, compound at 1 μM, read-out: PoC (1 μM) PIM2); 91% at CAMKK1 (setting [2]).
As to `Cc1cccc(-c2cnc3occ(-c4ccc(C(=O)O)c(C5CCCC5)c4)c3c2)c1` [SGC-CAMKK2-1 (YL-36)], the remaining binding at 1 µM worked out at 61% at PIP4K2C (1000 nM, DiscoveRx PIP5K2C, Entrez PIP4K2C, read-out: Percent Control); 7.5% at CAMKK2 (1000 nM, Entrez CAMKK2, read-out: Percent Control); 96% at PIM2 (1000 nM, Entrez PIM2, read-out: Percent Control); 15% on CAMKK1 (1000 nM, Entrez CAMKK1, read-out: Percent Control); 100% on MYO3B (1000 nM, Entrez MYO3B, read-out: Percent Control).
As to `O=C(O)c1ccc(-c2coc3ncc(-c4ccccc4)cc23)cc1Cl` [SGC-CAMKK2-1N (UNC-YL-83)], the remaining binding at 1 µM at PIP4K2C (PIP5K2C (PIP4K2C), 1000 nM, read-out: Percent Control) came to 7.2%; on CAMKK2 (CAMKK2, 1000 nM, read-out: Percent Control), 84%; on PIM2 (PIM2, 1000 nM, read-out: Percent Control), 7.4%; at CAMKK1 (CAMKK1, 1000 nM, read-out: Percent Control), 91%; at MYO3B (Compound Concentration 1000 nM, read-out: Percent Control), 100%.
